Entries after “also recorded” stand apart in the source; their conditions may differ. Read-outs that look alike come from different tables or passages of the source. Bridges are numbered along the chain shown (N, C = ends). Primed or numbered codes have the meaning given here. Where no end group is shown, it is not given here. [ ]: non-standard residue; d: D form. trimesoyl″ = trimesic acid scaffold joined by three amide bonds; Nal = naphthylalanine (isomer not specified); pY = N[C@@H](Cc1ccc(OP(=O)(O)O)cc1)C(=O)O; Phg = N[C@H](C(=O)O)c1ccccc1; Pra = C#CC[C@H](N)C(=O)O; dNal = D-naphthylalanine; Dap = NC[C@H](N)C(=O)O
Experiments:
K-Ras [1] = target: T1, K-Ras (Homo sapiens, UniProt P01116, G12V); assay: Competition between labeled peptide 2 and DCAI for K-Ras; assay type: binding
T1 construct: GST; made in house

H358 lung cancer cells = assay: MTT assay, growth of H358 cells; assay type: cell-based
Description: FIG. 23a, b show on-bead assay of inhibition of Ras-Raf interaction by cyclorasin B3.
Cyclorasin B2-B4 were tested for inhibition of cell proliferation by the MTT assay.

human TNFα = target: T2, human TNFα (Homo sapiens, UniProt P01375); assay: Fluorescence anisotropy (FA) binding to TNFα; settings: resynthesized, FITC-labeled, HPLC-purified peptide
T2 construct: extracellular domain of human TNFα (aa 77-233); made in house; host or cells: E. coli BL21(DE3)

WEHI-13VAR fibroblasts [2] = test system: WEHI-13VAR fibroblasts
Ras-Raf interaction = Ras-Raf interaction (Homo sapiens, UniProt P01116); assay: Qualitative on-bead assay of Ras-Raf interaction; assay type: binding; settings: 10 μM peptide, Texas red-labeled K-Ras, immobilized GST-Raf
K-Ras [3] = target: K-Ras (Homo sapiens, UniProt P01116); assay: FA-based competition assay for binding to K-Ras
WEHI-13VAR fibroblasts [4] = settings: in the presence of actinomycin-D; Khabar et al.; cited from earlier work
H1299 lung cancer cells = assay: MTT proliferation assay; assay type: cell-based
Description: One hundred μL of H1299 cells (0.5×10^5 cells/mL) were placed in each well of a 96-well culture plate and allowed to grow overnight. […] Ten μL of a MTT stock solution (5 mg/ml) was added into each well. The plate was incubated at 37° C. for 4 h. Then 100 μL of SDS-HCl solubilizing buffer was added into each well, and the resulting solution was mixed thoroughly. The plate was incubated at 37° C. overnight. The absorbance of the formazan product was measured at 570 nm using a Molecular Devices Spectramax M5 plate reader. Cells treated with DMSO were used as control.

K-Ras [5] = target: T1, K-Ras; assay: FA binding to K-Ras (Example 4 DCAI-bearing bicyclic peptides); settings: FAM- or FITC-labeled peptide; NB = no binding
From the text: To confirm the screening results, four hit sequences (peptides A2, A8, B5 and B8; hereafter named as peptides 1-4) were selected for resynthesis and tested for binding to K-Ras in solution by fluorescence anisotropy. The peptides were synthesized on Rink Amide resin, cleaved, deprotected, and purified by reversed-phase HPLC. Each peptide contains a Lys outside of the bicyclic rings to serve as the point of labeling with an amine-reactive fluorescent dye (FAM-NHS or FITC).

TNFα-TNFR1 interaction = target: T3, TNFα-TNFR1 interaction (Homo sapiens, UniProt P01375); assay: TNFα-TNFR1 interaction ELISA (HRP-TNFR1, immobilized TNFα); settings: read-out: IC50, inhibition of TNF-alpha binding to its cognate receptor
T3 construct: extracellular domain of human TNFα (aa 77-233); host or cells: E. coli BL21(DE3) (TNFα)
Description: Recombinant TNFR1 was purchased from R&D Systems. EZ-Link Plus activated peroxidase, an amine-reactive form of HRP was purchased from Thermo Scientific. TNFR1 was labeled with HRP by combining 50 μL of TNFR1 (1.0 μM) and 4 μL of HRP […], of Na2CO3 buffer (0.2 M Na2CO3, 0.15 M NaCl, pH 9.0) for 1 h. The resulting TNFR1-HRP conjugate was treated with NaCNBH3 to reduce the resulting Schiff base and quenched with 20 μl of ethanolamine. A Nunc 96F Maxisorp plate was coated overnight with 100 μL of […] Neutravidin (in 50 mM Na2CO3, pH 9.0) at 4° C. The solution was removed and each well was washed with 100 μL of the blocking buffer containing 3% BSA. […] The absorbance at 450 nm was measured and plotted against the peptide concentration and the IC50 value was obtained by curve fitting.
TNFα signaling begins with the binding of the TNFα trimer to the extracellular domain of TNFR1, triggering the release of the inhibitory protein, silencer of death domains (SODD), from the intracellular domain of TNFR1 (Chen, G and Goeddel, D V. Science, 2002, 296, 1634-1635). […] After washing, the amount of HRP-TNFR1 bound to each well was quantitated by ELISA using 3,3′,5,5′-tetramethylbenzidine (TMB) as HRP substrate, which was converted into 3,3′,5,5′-tetramethylbenzidine diimine by HRP resulting in absorbance at 450 nm (Martin, T L et al. J. Histochem. Cytochem., 1984, 32, 793).

[6] = target: GST-FKBP12 fusion protein (Homo sapiens, UniProt P62942); assay: FA binding to GST-FKBP12
Ras-GTP = Ras-GTP (Homo sapiens, UniProt P01116); assay: FA binding to K-Ras loaded with GTP

Compound: Cc1[nH]c2cc(Cl)cc(Cl)c2c1CCN [DCAI, 4,6-dichloro-2-methyl-3-aminoethyl-indole]
- IC50 (K-Ras [1]): 1400 µM

Compound: CCCCCCCC/C=C\CCCCCCCC(=O)NCCCC[C@H](NC(=O)[C@@H]1CNC(=O)c2cc3cc(c2)C(=O)NC(Cc2ccc4ccccc4c2)C(=O)N[C@@H](CO)C(=O)N[C@@H](CCC(N)=O)C(=O)NC(Cc2ccc4ccccc4c2)C(=O)N[C@@H](c2ccccc2)C(=O)N[C@@H](CCCCNC3=O)C(=O)N[C@H](Cc2ccccc2)C(=O)N[C@@H](CCCNC(=N)N)C(=O)N[C@H](C(C)C)C(=O)NC(CCCNC(=N)N)C(=O)N1)C(N)=O (some centres unmarked) [oleiylated cyclorasin B3]
- anti-proliferative activity against H358 lung cancer cells (H358 lung cancer cells): modest anti-proliferative activity

Compound: Bicyclo(Arg-Arg-Arg-Arg-Nal-Phe-Dap-S er-D-Val-Pro-pTyr-His-Dap) (RRRR[Nal]F[Dap]S[dV]P[pY]H[Dap]; linker N-7-13 via trimesic acid (inferred)) [control bicyclic peptide, reference compound]
- KD for TNFα (human TNFα): no detectable binding
- protection of cells from TNFα-induced cell death (WEHI-13VAR fibroblasts [2]; TNFα 0.04 ng/mL, peptide 0-25 μM, actinomycin D): no protective effect

Compound: Orn-Arg-nal-Arg-Fpa-Lys-phe-glu-Gly-Dap [Hit 105B]
- effect on Ras-Raf interaction (bead staining) (Ras-Raf interaction): completely abolished
- inhibition of binding of (FITC-labeled) cyclorasin B4 to K-Ras (K-Ras [3]): inhibited the binding of FITC-labeled B4 to K-Ras

Compound: TNFα: Tumor necrosis factor-alpha, cytokine used to induce cell death
- LD50 of TNFα in the absence of TNFα inhibitor (WEHI-13VAR fibroblasts [2]; TNFα 0-250 ng/mL): 0.46 ng/mL
- LD50 range of TNFα (WEHI-13VAR fibroblasts [4]): 0.005 to 0.065 ng/mL

Compound: bicyclo(Ala-d-Leu-Phe-Arg-d-Asn-Pra-Ile-Asp-K-FNalR4-Dap)-K [Peptide 41]
- EC50 (H1299 lung cancer cells; 24-hour treatment, peptide 0-40 μM, read-out: ED50, anti-proliferative activity): ~9 µM
- EC50 (H1299 lung cancer cells; 72 h, read-out: ED50, cell growth inhibition): ~7 µM

Compound: bicyclo(Arg-Asp-Phg-Pra-d-Asn-K-FNalR4-Dap)-K (RD[Phg][Pra][dN]KF[dNal]RRRR[Dap]K-NH2; linker N-6-13 via trimesoyl″ (inferred); not fully specified; printed as bicyclo(Arg-Asp-Phg-Pra-d-Asn-K-FNalR4-Dap)-K) [Peptide 1]
- KD for K-Ras (K-Ras [5]): does not bind

Compound: bicyclo(Phg-Tyr-D-Ala-Lys-Tyr-D-Phe-Gly-D-Lys-His-Dap) [Necrostatin C1]
- Kd (human TNFα): 0.45 µM
- IC50 (TNFα-TNFR1 interaction): 3.1 µM
- LD50 of TNFα in the presence of 50 μM Necrostatin C1 (WEHI-13VAR fibroblasts [2]; TNFα 0-250 ng/mL): 1.8 ng/mL

Compound: nal-Ser-Gln-nal-Phg-Lys-phe-Arg-val-Arg-Dap [Hit 82]
- effect on Ras-Raf interaction (bead staining) (Ras-Raf interaction; listed as cyclorasin B3): completely abolished; also recorded: abolished Ras-Raf interaction
- binding to GST-FKBP12 [6]: very weakly
- fold higher affinity for Ras-GTP and Ras-GPPNP than Ras-GDP (Ras-GTP): approximately 8 fold
